According to patent US7560458B2, “Triazolopyrimidine derivatives as glycogen synthase kinase 3 inhibitors” (Janssen Pharmaceutica, N.V., priority 2003, dated 2009):

Tests used:
[1] = target: GSK3β (Homo sapiens, UniProt P49841); experiment: GSK3beta assay (SPA, biotinylated phosphorylated CREB peptide, ATP-P33); format: biochemical; conditions: −log IC50 (M); given as ranges (>8; 7-8; <7); read-out: pIC50 (GSK3beta) (converted)
Protocol: (§1) GSK3beta assays were performed at room temperature in a 100 μl reaction volume of 25 mM Tris (ph 7.4) containing 10 mM MgCl2.6H2O 1 mM DTT, 0.1 mg/ml BSA, 5% glyceol and containing 5.7 ng/μl GSK3β, 5 μM biotinylated phosphorylated CREB peptide, 1 μM APT, 0.85 μCi/ml ATP-P^33 and a suitable amount of a test compound of formula (I). After one hour, the reaction was terminated by adding 70 μl of Stop mix (0.1 mM APT, 5 mg/ml streptavidin coated PVT SPA bead pH 11.0). The beads to which the phosphorylated CREB peptide is attached were allowed to settle overnight and the radioactivity of the beads was counted in a microtiterplate scintillation counter and compared with the results obtained in a control experiment (without the presence of a test compound) in order to determine the percentage of GSK3β inhibition. The IC50 value, i.e. the concentration (M) of the test compound at which 50% of GSK3β is inhibited, was calculated from the dose response curve obtained by performing the above-described GSKK3β assay in the presence of different amounts of the test compound.

[2] = target: GSK3alpha (Homo sapiens, UniProt P49840); experiment: GSK3alpha assay (same as the GSK3beta assay, GSK3alpha 0.25 ng/μl); format: biochemical; conditions: −log IC50 (M); given as ranges (>8; 7-8; <7); read-out: pIC50 (GSK3alpha) (converted)
Protocol: as §1
The GSK3alpha assay was performed in the same way as described above for the GSK3beta assay except for the concentration of GSK3alpha which is 0.25 ng/μl.

GSK3β, sequence (P49841 whole entry, species assumed): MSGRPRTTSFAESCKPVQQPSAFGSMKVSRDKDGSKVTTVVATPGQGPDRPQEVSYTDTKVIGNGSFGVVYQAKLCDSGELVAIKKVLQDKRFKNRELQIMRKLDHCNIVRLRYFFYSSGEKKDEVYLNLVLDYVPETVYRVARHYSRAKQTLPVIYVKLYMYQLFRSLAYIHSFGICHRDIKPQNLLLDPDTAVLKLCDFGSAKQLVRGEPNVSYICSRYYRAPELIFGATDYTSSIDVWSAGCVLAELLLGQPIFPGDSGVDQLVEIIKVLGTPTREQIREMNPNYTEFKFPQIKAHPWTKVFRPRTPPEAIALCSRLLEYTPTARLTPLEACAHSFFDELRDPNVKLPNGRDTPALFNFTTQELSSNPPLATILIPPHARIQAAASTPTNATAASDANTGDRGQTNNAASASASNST
GSK3alpha, sequence (P49840 whole entry, species assumed): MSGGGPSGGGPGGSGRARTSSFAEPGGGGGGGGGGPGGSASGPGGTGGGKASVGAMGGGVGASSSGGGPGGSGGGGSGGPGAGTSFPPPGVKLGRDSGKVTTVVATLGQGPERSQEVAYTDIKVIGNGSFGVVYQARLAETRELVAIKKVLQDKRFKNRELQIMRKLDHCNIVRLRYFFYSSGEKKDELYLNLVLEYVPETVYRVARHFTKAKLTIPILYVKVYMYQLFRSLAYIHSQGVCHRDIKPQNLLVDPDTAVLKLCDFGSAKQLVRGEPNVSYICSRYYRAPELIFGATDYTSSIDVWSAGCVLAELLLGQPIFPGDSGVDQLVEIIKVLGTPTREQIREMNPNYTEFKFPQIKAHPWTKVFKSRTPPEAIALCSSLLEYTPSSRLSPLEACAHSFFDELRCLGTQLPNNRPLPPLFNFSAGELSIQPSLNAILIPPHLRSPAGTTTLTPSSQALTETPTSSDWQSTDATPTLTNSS

Row | IC50 [1] [M] | IC50 [2] [M] | Compound
1 | < 1e-08 | < 1e-08 | CC(C)CC(=O)NCc1cccc(-n2nnc3cnc(Nc4cccc(C#N)c4)nc32)c1 [Compound 185]
2 | 1e-08 to 1e-07 | < 1e-08 | CC(C)CC(=O)NCc1cccc(-n2nnc3cnc(Nc4cccc(C(=O)NCCO)c4)nc32)c1 [Compound 186]
3 | < 1e-08 | < 1e-08 | COCc1cccc(Nc2ncc3nnn(-c4cccc(CNC(=O)CC(C)C)c4)c3n2)c1 [Compound 188]
4 | < 1e-08 | < 1e-08 | CC(C)CC(=O)NCc1cccc(-n2nnc3cnc(Nc4cccc(NS(C)(=O)=O)c4)nc32)c1 [Compound 189]
5 | 1e-08 | < 1e-08 | CC(C)CC(=O)NCc1cccc(-n2nnc3cnc(Nc4ccc(C#N)cc4)nc32)c1 [Compound 190]
6 | < 1e-08 | < 1e-08 | CC(C)CC(=O)NCc1cccc(-n2nnc3cnc(Nc4ccc(C(N)=O)cc4)nc32)c1 [Compound 191]
7 | < 1e-08 | < 1e-08 | CC(C)CC(=O)NCc1cccc(-n2nnc3cnc(Nc4ccc(C(=O)NCC(=O)O)cc4)nc32)c1 [Compound 192]
8 | 1e-08 to 1e-07 | 1e-08 to 1e-07 | CC(C)CC(=O)NCc1cccc(-n2nnc3cnc(Nc4ccc(C(=O)O)cc4)nc32)c1 [Compound 193]
9 | 1e-08 to 1e-07 | < 1e-08 | CC(C)CC(=O)NCc1cccc(-n2nnc3cnc(Nc4ccc(CC(=O)O)cc4)nc32)c1 [Compound 194]
10 | 1e-08 to 1e-07 | < 1e-08 | CC(C)CC(=O)NCc1cccc(-n2nnc3cnc(Nc4ccc(CCO)cc4)nc32)c1 [Compound 195]
11 | < 1e-08 | < 1e-08 | CC(C)CC(=O)NCc1cccc(-n2nnc3cnc(Nc4ccc(S(N)(=O)=O)cc4)nc32)c1 [Compound 197]
12 | 1e-08 to 1e-07 | < 1e-08 | O=C(NCCO)c1cccc(Nc2ncc3nnn(-c4cccc(CNC(=O)C5CC5)c4)c3n2)c1 [Compound 200]
13 | < 1e-08 | < 1e-08 | COCc1cccc(Nc2ncc3nnn(-c4cccc(CNC(=O)C5CC5)c4)c3n2)c1 [Compound 201]
14 | < 1e-08 | < 1e-08 | CS(=O)(=O)Nc1cccc(Nc2ncc3nnn(-c4cccc(CNC(=O)C5CC5)c4)c3n2)c1 [Compound 202]
15 | 1e-08 to 1e-07 | < 1e-08 | N#Cc1ccc(Nc2ncc3nnn(-c4cccc(CNC(=O)C5CC5)c4)c3n2)cc1 [Compound 203]
16 | < 1e-08 | < 1e-08 | O=C(O)CNC(=O)c1ccc(Nc2ncc3nnn(-c4cccc(CNC(=O)C5CC5)c4)c3n2)cc1 [Compound 205]
17 | < 1e-08 | < 1e-08 | O=C(O)c1ccc(Nc2ncc3nnn(-c4cccc(CNC(=O)C5CC5)c4)c3n2)cc1 [Compound 206]
18 | < 1e-08 | < 1e-08 | O=C(O)Cc1ccc(Nc2ncc3nnn(-c4cccc(CNC(=O)C5CC5)c4)c3n2)cc1 [Compound 207]
19 | < 1e-08 | < 1e-08 | O=C(NCc1cccc(-n2nnc3cnc(Nc4ccc(CCO)cc4)nc32)c1)C1CC1 [Compound 208]
20 | 1e-08 to 1e-07 | 1e-08 to 1e-07 | COc1ccc(Nc2ncc3nnn(-c4cccc(CNC(=O)C5CC5)c4)c3n2)cn1 [Compound 209]
21 | < 1e-08 | < 1e-08 | NS(=O)(=O)c1ccc(Nc2ncc3nnn(-c4cccc(CNC(=O)C5CC5)c4)c3n2)cc1 [Compound 210]
22 | < 1e-08 | < 1e-08 | O=C(O)c1ccc(Nc2ncc3nnn(-c4cccc(CNC(=O)C5CC5)c4)c3n2)cc1Cl [Compound 212]
23 | < 1e-08 | < 1e-08 | CCOC(=O)NCc1cccc(-n2nnc3cnc(Nc4cccc(C#N)c4)nc32)c1 [Compound 214]
24 | < 1e-08 | < 1e-08 | CCOC(=O)NCc1cccc(-n2nnc3cnc(Nc4cccc(COC)c4)nc32)c1 [Compound 216]

Row | IC50 [1] [M] | IC50 [2] [M] | Compound
25 | < 1e-08 | < 1e-08 | CCOC(=O)NCc1cccc(-n2nnc3cnc(Nc4cccc(NS(C)(=O)=O)c4)nc32)c1 [Compound 217]
26 | < 1e-08 | < 1e-08 | CCOC(=O)NCc1cccc(-n2nnc3cnc(Nc4ccc(C(N)=O)cc4)nc32)c1 [Compound 218]
27 | < 1e-08 | < 1e-08 | CCOC(=O)NCc1cccc(-n2nnc3cnc(Nc4ccc(CC(=O)O)cc4)nc32)c1 [Compound 219]
28 | < 1e-08 | < 1e-08 | CCOC(=O)NCc1cccc(-n2nnc3cnc(Nc4ccc(CCO)cc4)nc32)c1 [Compound 220]
29 | < 1e-08 | < 1e-08 | CCOC(=O)NCc1cccc(-n2nnc3cnc(Nc4ccc(OC)nc4)nc32)c1 [Compound 221]
30 | < 1e-08 | < 1e-08 | CCOC(=O)NCc1cccc(-n2nnc3cnc(Nc4cccc([S+](C)[O-])c4)nc32)c1 (stereo not shown) [Compound 223]
31 | 1e-08 to 1e-07 | < 1e-08 | NS(=O)(=O)c1ccc(Nc2ncc3nnn(-c4cccc(C(=O)NCCO)c4)c3n2)cc1 [Compound 227]
32 | < 1e-08 | < 1e-08 | NC(=O)c1cccc(-n2nnc3cnc(Nc4ccc(C(=O)O)cc4)nc32)c1 [Compound 228]
33 | < 1e-08 | < 1e-08 | N#Cc1ccc(Nc2ncc3nnn(-c4cccc(C(=O)NCCO)c4)c3n2)cc1 [Compound 229]
34 | 1e-08 to 1e-07 | < 1e-08 | CS(=O)(=O)Nc1cccc(Nc2ncc3nnn(-c4cccc(CNC(=O)C56CC7CC(CC(C7)C5)C6)c4)c3n2)c1 [Compound 235]
35 | 1e-08 to 1e-07 | 1e-08 | NC(=O)c1ccc(Nc2ncc3nnn(-c4cccc(CNC(=O)C56CC7CC(CC(C7)C5)C6)c4)c3n2)cc1 [Compound 237]
36 | < 1e-08 | < 1e-08 | O=C(O)CNC(=O)c1ccc(Nc2ncc3nnn(-c4cccc(CNC(=O)C56CC7CC(CC(C7)C5)C6)c4)c3n2)cc1 [Compound 238]
37 | 1e-08 to 1e-07 | 1e-08 | O=C(O)c1ccc(Nc2ncc3nnn(-c4cccc(CNC(=O)C56CC7CC(CC(C7)C5)C6)c4)c3n2)cc1 [Compound 239]
38 | 1e-08 to 1e-07 | 1e-08 to 1e-07 | O=C(O)Cc1ccc(Nc2ncc3nnn(-c4cccc(CNC(=O)C56CC7CC(CC(C7)C5)C6)c4)c3n2)cc1 [Compound 240]
39 | 1e-08 to 1e-07 | 1e-08 to 1e-07 | O=C(NCc1cccc(-n2nnc3cnc(Nc4ccc(CCO)cc4)nc32)c1)C12CC3CC(CC(C3)C1)C2 [Compound 241]
40 | 1e-08 to 1e-07 | 1e-08 to 1e-07 | NS(=O)(=O)c1ccc(Nc2ncc3nnn(-c4cccc(CNC(=O)C56CC7CC(CC(C7)C5)C6)c4)c3n2)cc1 [Compound 243]
41 | < 1e-08 | < 1e-08 | COc1cccc(-n2nnc3cnc(Nc4ccc(C(=O)O)cc4)nc32)c1 [Compound 246]
42 | 1e-08 to 1e-07 | < 1e-08 | O=C(O)c1ccc(Nc2ncc3nnn(-c4cccc(C(=O)NCCO)c4)c3n2)cc1 [Compound 247]
43 | < 1e-08 | < 1e-08 | CC(=O)NCc1cccc(-n2nnc3cnc(Nc4ccc(S(N)(=O)=O)cc4)nc32)c1 [Compound 248]
44 | < 1e-08 | < 1e-08 | COCc1cccc(-n2nnc3cnc(Nc4ccc(C(=O)O)c(C)c4)nc32)c1 [Compound 249]
45 | < 1e-08 | < 1e-08 | NC(=O)Cc1cccc(-n2nnc3cnc(Nc4ccc(F)cc4)nc32)c1 [Compound 254]
46 | < 1e-08 | < 1e-08 | CCOc1cc(Nc2ncc3nnn(-c4cccc(CCO)c4)c3n2)ccc1C(=O)O [Compound 255]
47 | < 1e-08 | < 1e-08 | CS(=O)(=O)Nc1cccc(Nc2ncc3nnn(-c4cccc(CCO)c4)c3n2)c1 [Compound 256]
